The target of this assay is T1, human sGC α subunit and β subunit (Homo sapiens, UniProt Q02153).
T1 construct: expressed in transfected cells
T1 sequence (Q02153 1-619): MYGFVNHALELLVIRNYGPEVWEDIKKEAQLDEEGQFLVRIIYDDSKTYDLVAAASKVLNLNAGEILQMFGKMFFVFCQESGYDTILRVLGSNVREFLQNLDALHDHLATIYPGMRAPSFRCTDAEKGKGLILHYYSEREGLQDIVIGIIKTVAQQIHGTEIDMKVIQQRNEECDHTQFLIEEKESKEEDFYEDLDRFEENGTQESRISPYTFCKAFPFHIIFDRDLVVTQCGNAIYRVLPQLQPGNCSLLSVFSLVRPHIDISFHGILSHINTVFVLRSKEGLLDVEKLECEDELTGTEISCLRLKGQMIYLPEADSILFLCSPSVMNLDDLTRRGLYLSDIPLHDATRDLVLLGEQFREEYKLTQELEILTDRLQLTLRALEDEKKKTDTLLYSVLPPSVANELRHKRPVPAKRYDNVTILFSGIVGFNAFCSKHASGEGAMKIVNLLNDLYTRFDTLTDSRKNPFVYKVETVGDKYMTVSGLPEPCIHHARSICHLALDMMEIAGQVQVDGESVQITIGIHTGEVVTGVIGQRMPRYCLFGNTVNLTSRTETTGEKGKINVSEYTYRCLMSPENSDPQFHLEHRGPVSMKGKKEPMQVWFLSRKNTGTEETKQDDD
T1 sequence (Q02108 1-690 partner): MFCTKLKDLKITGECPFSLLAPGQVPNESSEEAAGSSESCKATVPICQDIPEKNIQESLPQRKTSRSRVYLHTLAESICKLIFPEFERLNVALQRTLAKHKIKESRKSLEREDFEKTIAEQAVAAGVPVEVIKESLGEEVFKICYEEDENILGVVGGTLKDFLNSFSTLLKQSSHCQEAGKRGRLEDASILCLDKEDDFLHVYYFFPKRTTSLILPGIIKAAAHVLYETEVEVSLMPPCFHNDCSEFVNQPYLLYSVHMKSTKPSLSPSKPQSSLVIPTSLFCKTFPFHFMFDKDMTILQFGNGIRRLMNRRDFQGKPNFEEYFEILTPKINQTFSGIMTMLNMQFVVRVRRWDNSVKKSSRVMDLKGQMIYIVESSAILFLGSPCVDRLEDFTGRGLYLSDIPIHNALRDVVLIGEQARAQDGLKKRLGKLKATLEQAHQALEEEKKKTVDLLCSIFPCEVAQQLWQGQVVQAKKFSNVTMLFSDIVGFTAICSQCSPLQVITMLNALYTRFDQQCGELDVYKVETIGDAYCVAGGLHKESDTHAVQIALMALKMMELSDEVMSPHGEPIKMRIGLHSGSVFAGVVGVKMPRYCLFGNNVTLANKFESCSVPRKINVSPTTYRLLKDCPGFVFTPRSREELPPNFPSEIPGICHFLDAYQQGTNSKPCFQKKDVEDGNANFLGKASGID
As to the kind of experiment: Maximum effect of sGC activating function (Ca2+ fluorescence in CHO-K1 cells expressing human sGC and mouse CNGA2). The assay is classed as cell-based. To be noted: increase ratio of sGC activity vs control solution at 10 μmol/L test compound. The procedure, abridged: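 CHO-K1 cells stably expressing human sGC α/β and mouse CNGA2 were FURA2-AM loaded and then treated with compound at 10 μmol/L for 10 min at RT, in buffer containing 100 μmol/L IBMX, with or without 10 μmol/L ODQ. Ca²⁺ was read as the 340/380 nm excitation ratio. Activity is the % increase over the DMSO control.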

The mark [1] stands for this setting: ODQ not contained, read-out: Emax (%) ODQ− (Heme-dependent).
Where [2] appears, read: with 10 μmol/L ODQ, read-out: Emax (%) ODQ+ (Heme-independent).

Where two headings read alike, the source gives them in different places.

By Emax is commonly meant the maximal effect, on the per cent scale that the assay sets. For the compound `O=C(O)CCCCN(CCc1ccccc1OCc1ccc(CCc2ccccc2)cc1)Cc1ccc(C(=O)O)cc1` [Cinaciguat, reference compound], the Emax at 10 µM reads like this: under setting [1], 53%; under setting [2], 86%.
On the same counts, the results for `O=C(O)CCCCN(CCc1ccccc1OCc1ccc(SCc2ccccc2)cc1)C1CCCc2cc(C(=O)O)ccc21` (stereo not drawn) [Example 15, 5-{N-[2-[2-(4-Benzylsulfanylbenzyloxyl)phenyl]ethyl]-N-(4-carboxybutyl)amino}-5,6,7,8-tetrahydronaphthalene-2-carboxylic acid] are 101% and 99.9%.
The matching figures for `O=C(O)CCCCN(CCc1ccccc1OCc1cccc2c1CCCC2)C1CCCc2cc(C(=O)O)ccc21` (stereo not drawn) [Example 29, 5-{N-(4-Carboxybutyl)-N-[2-[2-(5,6,7,8-tetrahydronaphthalene-1-ylmethoxy)phenyl]ethyl]amino}-5,6,7,8-tetrahydronaphthalene-2-carboxylic acid]: 141% and 133%.

The values above are taken from patent US9290440B2, “Bicyclic compound” (TOA EIYO LTD., priority 2012, dated 2016).
